Here are results for 13 substances from US9441024.

For the data set the following is noted: disulfide bond; 38-membered ring.
Substance “C(disialo(aminoethylamide))/S1C(disialo)-SRIF28” came in with a ring closure, yield after HPLC of 58%.

C(disialo)-C12 linker-SRIF14 yielded a ring closure, yield after HPLC of 61%.

S1-2C(asialo)-SRIF28 came in with a ring closure, yield after HPLC of 55%.

S1-2C(disialo)-SRIF28 showed a ring closure, yield after HPLC of 58%.

In turn, S1-3C(asialo)-SRIF28 displayed a ring closure, yield after HPLC of 52%.

S1-3C(disialo)-SRIF28 came in with a ring closure, yield after HPLC of 63%.

Substance S1-4C(disialo)-SRIF28 returned a ring closure, yield after HPLC of 57%.

Regarding S1-5C(disialo)-SRIF28, the ring closure, yield after HPLC came to 76%.

Regarding S1C(diGlcNAc)-SRIF28, the ring closure, yield after HPLC is 60%.

For the substance S1C(disialo (hexadecylamide))-SRIF28, the ring closure, yield after HPLC was 89%.

In the case of S1C(disialo(aminoethylamide))-SRIF28, the ring closure, yield after HPLC worked out at 73%.

Substance S1C(disialo)-SRIF28 yielded a ring closure, yield after HPLC of 59%.

In turn, S1C(disialo).N19C(GlcNAc)-SRIF28 registered a ring closure, yield after HPLC of 59%.
